Reference: patent US8389508B2 (Glaxo Group Limited, priority 2010, dated 2013)
Counter-ions that a name gives are not always drawn.

What was measured:
[1] = target: T1, human Endothelial Differentiation Gene 1 (EDG1), S1P1 receptor (Homo sapiens, UniProt P21453); assay: S1P1 Assay (Tango EDG1-bla/U2OS beta-lactamase reporter, agonist dose response); format: cell-based; settings: EDG1-bla/U2OS cells, blue/green emission ratio, 10 point dose response, free base or salt form; read-out: pEC50 (S1P1 assay) (converted)
T1 construct: TEV protease site; Gal4-VP16 transcription factor; expressed in transfected cells; host or cells: EDG1-bla/U2OS (Tango GPCR-bla U2OS parental cell line)
Description: Recombinant EDG1-bla/U2OS cells (contain the human Endothelial Differentiation Gene 1 (EDG1) linked to a TEV protease site and a Gal4-VP16 transcription factor stably integrated into the Tango GPCR-bla U2OS parental cell line) were harvested from growth medium and passaged into assay medium (Invitrogen Freestyle Expression Medium). The cells were starved for 24 hours at 37° C., 5% CO2, harvested and resuspended in assay medium at a density of ˜200,000 cells/ml. All test compounds were dissolved in DMSO at a concentration of 10 mM and were prepared in 100% DMSO to provide 10 point dose response curves. Test compounds in the free base or in a salt form were prepared by Velocity11 Bravo automation (Agilent) were added to wells in columns 2-11 and 13-22; DMSO was added to wells in columns 12 and 23 as unstimulated controls and assay medium was added to wells in columns 1 and 24 as cell-free controls. An S1P1 agonist was added to wells in row 2, columns 2-11 as stimulated controls and test compounds were added to wells in row 2, columns 13-22 and rows 3-15, columns 2-11/13-22 (row 1 and 16 were empty and not used). Compounds in solution were added to the assay plate (Greiner 781090) using an Echo (Labcyte) dose-response program (50 nl/well). The unstimulated and cell-free controls were loaded with 50 nl/well pure DMSO to ensure that the DMSO concentration was constant across the plate for all assays. 50 μl of the cell suspension was added to each well in columns 2-23 of the plate (˜10,000 cells per well). 50 μl of assay medium was added to each well in the cell-free controls (columns 1 and 24). The cells were incubated overnight at 37° C./5% CO2.
(§1) 10 μl of 6× substrate mixture (LiveBLAzer™-FRET B/G substrate (CCF4-AM) Cat # K1096 from Invitrogen, Inc.) was added to each well using Bravo automation and the plates incubated at room temperature for 2 h in the dark. The plate was finally read on EnVision using one excitation channel (409 nm) and two emission channels (460 nm and 530 nm).
(§2) The blue/green emission ratio (460 nm/530 nm) was calculated for each well, by dividing the background-subtracted Blue emission values by the background-subtracted Green emission values. The dose response curve is based on sigmoidal dose-response model. All ratio data was normalized based upon the maximum emission ratio of positive control and minimum emission ratio of negative control (DMSO) on each plate. The intrinsic activity (IA) of each compound is defined as relative response normalised to a reference compound, whose maximum response is defined as 100% after curve fitting.

[2] = target: T2, human Endothelial Differentiation G-protein Coupled Receptor 3 (EDG3), S1P3 receptor (Homo sapiens, UniProt Q99500); assay: S1P3 Assay (GeneBLAzer EDG3-Ga15-NFAT-bla HEK 293T beta-lactamase reporter, agonist dose response); format: cell-based; settings: EDG3-Ga15-NFAT-bla HEK 293T cells, blue/green emission ratio, 10 point dose response, free base or salt form; read-out: pEC50 (S1P3 assay) (converted)
T2 construct: expressed in transfected cells; host or cells: GeneBLAzer EDG3-Ga15-NFAT-bla HEK 293T
Description: GeneBLAzer EDG3-Ga15-NFAT-bla HEK 293T cells (contain the human Endothelial Differentiation G-protein Coupled Receptor 3 (EDG3) and a beta-lactamase reporter gene under control of a NFAT response element and a promiscuous G Protein, Ga15, stably integrated into the GeneBLAzer Ga15-NFAT-bla HEK 293T cell line) were harvested from growth medium and suspended in assay medium (90% DMEM, 10% Charcoal-stripped FBS, 0.1 mM NEAA, 25 mM HEPES (pH 7.3), 100 U/ml penicillin, 100 μg/ml streptomycin) at a density of […]. All test compounds were dissolved in DMSO at a concentration of 10 mM and were prepared in 100% DMSO to provide 10 point dose response curves. Test compounds in the free base or in a salt form were prepared by Velocity 11 Bravo automation (Agilent) were added to wells in columns 2-11 and 13-22; DMSO was added to wells in columns 12 and 23 as unstimulated controls and assay medium was added to wells in columns 1 and 24 as cell-free controls. An S1P3 agonist was added to wells in row 2, columns 2-11 as stimulated controls and test compounds were added to wells in row 2, columns 13-22 and rows 3-15, columns 2-11/13-22 (row 1 and 16 were empty and not used). Compounds in solution were added to the assay plate (Greiner 781090) using an Echo (Labcyte) dose-response program (50 nl/well). The unstimulated and cell-free controls were loaded with 50 nl/well pure DMSO to ensure that the DMSO concentration was constant across the plate for all assays.
50 μl of the cell suspension was added to each well in columns 2-23 of the plate (˜10,000 cells per well). 50 μl of assay medium was added to each well in the cell-free controls (columns 1 and 24). The cells were incubated overnight at 37° C./5% CO2.
as §1, §2

T1 sequence (P21453 whole entry, the tested form may be a part): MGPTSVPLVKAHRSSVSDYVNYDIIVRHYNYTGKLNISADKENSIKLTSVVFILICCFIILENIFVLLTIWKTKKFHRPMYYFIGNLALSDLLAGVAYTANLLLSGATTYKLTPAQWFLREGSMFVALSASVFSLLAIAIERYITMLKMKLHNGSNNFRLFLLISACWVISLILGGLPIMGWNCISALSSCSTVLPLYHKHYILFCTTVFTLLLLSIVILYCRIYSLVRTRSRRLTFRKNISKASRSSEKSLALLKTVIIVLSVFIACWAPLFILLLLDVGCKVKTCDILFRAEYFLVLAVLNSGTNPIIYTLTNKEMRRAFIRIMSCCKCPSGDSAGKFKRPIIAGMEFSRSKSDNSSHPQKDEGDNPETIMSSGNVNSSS
T2 sequence (Q99500 whole entry): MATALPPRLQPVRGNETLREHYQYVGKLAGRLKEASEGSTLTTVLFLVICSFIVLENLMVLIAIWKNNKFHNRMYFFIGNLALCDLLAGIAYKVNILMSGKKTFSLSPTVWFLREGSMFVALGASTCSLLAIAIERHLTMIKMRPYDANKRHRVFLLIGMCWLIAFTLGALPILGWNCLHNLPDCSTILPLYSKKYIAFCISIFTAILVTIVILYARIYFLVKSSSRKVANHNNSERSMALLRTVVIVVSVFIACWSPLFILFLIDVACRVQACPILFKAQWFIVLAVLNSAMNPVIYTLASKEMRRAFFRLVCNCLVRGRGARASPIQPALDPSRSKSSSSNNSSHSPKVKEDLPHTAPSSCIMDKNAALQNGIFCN

Row | EC50 [1] [µM] | EC50 [2] [µM] | SMILES
1 | < 0.001 | > 3.16 | CCc1c(CN2CCC(C(=O)O)CC2)cccc1-c1nnc(-c2ccc(OC(C)C)c(C(F)(F)F)c2)s1 [Example 1, 1-[(2-ethyl-3-{5-[4-[(1-methylethyl)oxy]-3-(trifluoromethyl)phenyl]-1,3,4-thiadiazol-2-yl}phenyl)methyl]-4-piperidinecarboxylic acid]
2 | < 0.001 | > 3.16 | CCc1c(CCN2CC(C(=O)O)C2)cccc1-c1nnc(-c2ccc(OC(C)C)c(C(F)(F)F)c2)s1 [Example 7, 1-[2-(2-ethyl-3-{5-[4-[(1-methylethyl)oxy]-3-(trifluoromethyl)phenyl]-1,3,4-thiadiazol-2-yl}phenyl)ethyl]-3-azetidinecarboxylic acid trifluoroacetate]
3 | < 0.001 | > 3.16 | CCc1c(CN2CCC(C(=O)O)CC2)cccc1-c1nnc(-c2ccc(CC(C)C)c(C#N)c2)s1 [Example 8, 1-[(3-{5-[3-cyano-4-(2-methylpropyl)phenyl]-1,3,4-thiadiazol-2-yl}-2-ethylphenyl)methyl]-4-piperidinecarboxylic acid trifluoroacetate]
4 | < 0.001 | > 10 | CCc1c(CN2CC(C(=O)O)C2)cccc1-c1nnc(-c2ccc(CC(C)C)c(C#N)c2)s1 [Example 9, 1-[(3-{5-[3-cyano-4-(2-methylpropyl)phenyl]-1,3,4-thiadiazol-2-yl}-2-ethylphenyl)methyl]-3-azetidinecarboxylic acid trifluoroacetate]
5 | < 0.001 | > 3.16 | CCc1c(CCN2CC(C(=O)O)C2)cccc1-c1nnc(-c2ccc(CC(C)C)c(C#N)c2)s1 [Example 10, 1-[2-(3-{5-[3-cyano-4-(2-methylpropyl)phenyl]-1,3,4-thiadiazol-2-yl}-2-ethylphenyl)ethyl]-3-azetidinecarboxylic acid]
6 | < 0.001 | > 3.16 | CCc1c(CCN2CCC(C(=O)O)CC2)cccc1-c1nnc(-c2ccc(CC(C)C)c(C#N)c2)s1 [Example 11, 1-[2-(3-{5-[3-cyano-4-(2-methylpropyl)phenyl]-1,3,4-thiadiazol-2-yl}-2-ethylphenyl)ethyl]-4-piperidinecarboxylic acid]
7 | < 0.001 | > 3.16 | CCc1c(CCN2CCC(C(=O)O)C2)cccc1-c1nnc(-c2ccc(OC(C)C)c(Cl)c2)s1 (stereo not shown) [Example 12, 1-{2-[3-(5-{3-chloro-4-[(1-methylethyl)oxy]phenyl}-1,3,4-thiadiazol-2-yl)-2-ethylphenyl]ethyl}-3-pyrrolidinecarboxylic acid trifluoroacetate]
8 | < 0.1 | > 10 | COc1c(CCN2CCC(C(=O)O)CC2)cc(F)cc1-c1nnc(-c2ccc(OC(C)C)c(C(F)(F)F)c2)s1 [Example 13, 1-{2-[5-fluoro-3-{5-[4-[(1-methylethyl)oxy]-3-(trifluoromethyl)phenyl]-1,3,4-thiadiazol-2-yl}-2-(methyloxy)phenyl]ethyl}-4-piperidinecarboxylic acid]
9 | ≤ 0.01 | > 10 | COc1c(CCN2CC(C(=O)O)C2)cc(F)cc1-c1nnc(-c2ccc(OC(C)C)c(C(F)(F)F)c2)s1 [Example 14, 1-{2-[5-fluoro-3-{5-[4-[(1-methylethyl)oxy]-3-(trifluoromethyl)phenyl]-1,3,4-thiadiazol-2-yl}-2-(methyloxy)phenyl]ethyl}-3-azetidinecarboxylic acid]
10 | ≤ 0.01 | > 10 | COc1c(CCN2CC(C(=O)O)C2)cc(F)cc1-c1nnc(-c2ccc(CC(C)C)c(C#N)c2)s1 [Example 15, 1-{2-[3-{5-[3-cyano-4-(2-methylpropyl)phenyl]-1,3,4-thiadiazol-2-yl}-5-fluoro-2-(methyloxy)phenyl]ethyl}-3-azetidinecarboxylic acid]
11 | ≤ 0.01 | > 3.16 | CCc1c(CN2CC(C(=O)O)C2)cccc1-c1nsc(-c2ccc(OC(C)C)c(C#N)c2)n1 [Example 17, 1-{[3-(5-{3-cyano-4-[(1-methylethyl)oxy]phenyl}-1,2,4-thiadiazol-3-yl)-2-ethylphenyl]methyl}-3-azetidinecarboxylic acid trifluoroacetate]
12 | < 0.1 | > 3.16 | CCc1c(CN2CCC(C(=O)O)CC2)cccc1-c1nsc(-c2ccc(OC(C)C)c(C(F)(F)F)c2)n1 [Example 18, 1-[(2-ethyl-3-{5-[4-[(1-methylethyl)oxy]-3-(trifluoromethyl)phenyl]-1,2,4-thiadiazol-3-yl}phenyl)methyl]-4-piperidinecarboxylic acid trifluoroacetate]
13 | < 0.001 | > 3.16 | CCc1c(CCN2CC(C(=O)O)C2)cccc1-c1nsc(-c2ccc(OC(C)C)c(C#N)c2)n1 [Example 26, 1-{2-[3-(5-{3-cyano-4-[(1-methylethyl)oxy]phenyl}-1,2,4-thiadiazol-3-yl)-2-ethylphenyl]ethyl}-3-azetidinecarboxylic acid trifluoroacetate]
14 | < 0.001 | > 3.16 | CCc1c(CN2CC(C(=O)O)C2)cccc1-c1cnc(-c2ccc(OC(C)C)c(C(F)(F)F)c2)s1 [Example 31, 1-[(2-ethyl-3-{2-[4-[(1-methylethyl)oxy]-3-(trifluoromethyl)phenyl]-1,3-thiazol-5-yl}phenyl)methyl]-3-azetidinecarboxylic acid]
15 | < 0.001 | > 3.16 | CCc1c(CN2CCC(C(=O)O)CC2)cccc1-c1cnc(-c2ccc(OC(C)C)c(C(F)(F)F)c2)s1 [Example 32, 1-[(2-ethyl-3-{2-[4-[(1-methylethyl)oxy]-3-(trifluoromethyl)phenyl]-1,3-thiazol-5-yl}phenyl)methyl]-4-piperidinecarboxylic acid]
16 | < 0.001 | > 3.16 | COc1c(CCN2CC(C(=O)O)C2)cc(F)cc1-c1cnc(-c2ccc(OC(C)C)c(Cl)c2)s1 [Example 33, 1-{2-[3-(2-{3-chloro-4-[(1-methylethyl)oxy]phenyl}-1,3-thiazol-5-yl)-5-fluoro-2-(methyloxy)phenyl]ethyl}-3-azetidinecarboxylic acid trifluoroacetate]
17 | – | > 3.16 | CCc1c(-c2nnc(-c3ccc(OC(C)C)c(Cl)c3)s2)cccc1C1CCN(CCC(=O)O)CC1 [Example 95, 3-{4-[3-(5-{3-chloro-4-[(1-methylethyl)oxy]phenyl}-1,3,4-thiadiazol-2-yl)-2-ethylphenyl]-1-piperidinyl}propanoic acid trifluoroacetate]
18 | – | > 3.16 | CCc1c(-c2nnc(-c3ccc(OC(C)C)c(Cl)c3)s2)cccc1C1CCN(CCCC(=O)O)CC1 [Example 97, 4-{4-[3-(5-{3-chloro-4-[(1-methylethyl)oxy]phenyl}-1,3,4-thiadiazol-2-yl)-2-ethylphenyl]-1-piperidinyl}butanoic acid trifluoroacetate]
